Consider 19 molecules from patent publication US20260035376A1, “COMPOSITIONS AND METHODS FOR INHIBITION OF RAS” (TheRas, Inc., priority 2022, published 2026).

In test [1] the target is T1, Avi-KRAS WT (1-169) GppNHp/RAF1 RBD-3×FLAG (52-151) (Homo sapiens, UniProt P01116).
T1 construct: 50 nM Avi-KRAS WT (1-169) GppNHp/RAF1 RBD-3×FLAG (52-151)
The experiment in a line: Disrupting RAS-effector binding HTRF assay, Raf1 RBD-KRAS WT-GppNHp. Conditions: PPI HTRF, 50 nM Avi-KRAS WT GppNHp, compound titration 30-0.0045 μM; read-out: Raf1 RBD-KRAS WT-GppNHp disruption.

Test [2] concerns KRAS G12D protein/effector signaling in GP2d cells. Nature of the test: Cell-based pERK HTRF assay in GP2d cell. Conditions: 1 h, 60 min incubation. In short, it runs like this:
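GP2d cells (DMEM, 10% FBS) exposed 60 min to a 9-point half-log compound series at 0.25% DMSO, then lysed. Phospho-ERK quantified by HTRF with d2/Eu cryptate antibodies after 4–24 h at room temperature, ex 320/em 615 nm.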

Test [3] concerns the target T2, Avi-KRAS G12V (1-169) GppNHp/RAF1 RBD-3×FLAG (52-151) (Homo sapiens, UniProt P01116, G12V).
T2 construct: 50 nM Avi-KRAS G12V (1-169) GppNHp/RAF1 RBD-3×FLAG (52-151)
Nature of the test: Disrupting RAS-effector binding HTRF assay, Raf1 RBD-KRAS G12V-GppNHp. The note with it: PPI HTRF, 50 nM Avi-KRAS G12V GppNHp, compound titration 30-0.0045 μM; read-out: Raf1 RBD-KRAS G12V-GppNHp disruption. On the technique in general: In TR-FRET formats the signal depends on donor and acceptor labels being close together.

The subject of test [4] is KRAS G12V protein/effector signaling in SW620 cells. The experiment in a line: Cell-based pERK HTRF assay in SW620 cell. Conditions: Homo sapiens, SW-620, 1 h incubation. On the procedure: pERK assay (Perkin Elmer) was used to determine the effectiveness of compounds in disrupting KRAS G12V protein/effector signaling in cells.
On Day 1, cells (SW620) were seeded into 96-well plates at 3×10^4 cells/well in 80 μL complete growth media (DMEM, 10% FBS).
On Day 2, cells were treated with compounds at 0.25% DMSO. The source plate was created with compounds diluted in media at 5-fold the final assay concentration. The compounds were run in a 9-point concentration curve starting at 10 μM, with a half-log dilution between concentrations. 20 μL was transferred onto the cell plates (final volume in wells was 100 μL). Plates were harvested after 1 h incubation by aspirating media and adding kit-supplied 1× supplemented lysis buffer to all wells (50 μL per well). Plates were then placed on a plate shaker and incubated at 850 rpm for an additional 30 min.
Antibody mixture solution was prepared by diluting aliquoted d2 and Eu Cryptate antibodies 1:20 in kit supplied detection buffer, and mixing the diluted antibodies solutions (1:1 v:v). Four μL of this solution was then added to a 384-well detection plate (Perkin Elmer; 6008230).
Samples were homogenized by pipetting up and down and then transferred (16 μL of cell lysates) from the 96-well cell culture plate to two wells of the HTRF 384-well detection plate containing the antibody solution. Plates were centrifuged (524 g for 1 min) and allowed to incubate between 4 and 24 h at room temperature. Maximum signal was reached after 4 h incubation time and remained stable over a period of 24 hours. Therefore, readings could be made between 4 and 24 h of incubation. Plates were centrifuged again (524 g for 1 min), then analyzed on the EnVision plate reader using the following settings: Excitation 320 nm, Bandwidth 75 nm; Emission 615 nm, Bandwidth 85 nm; Gain 100%; Flashes 100; Lag 60 μs.

The target of test [5] is T3, Avi-KRAS G12R (1-169) GppNHp/RAF1 RBD-3×FLAG (52-151) (Homo sapiens, UniProt P01116, G12R).
T3 construct: 50 nM Avi-KRAS G12R (1-169) GppNHp/RAF1 RBD-3×FLAG (52-151)
Nature of the test: Disrupting RAS-effector binding HTRF assay, Raf1 RBD-KRAS G12R-GppNHp. The note with it: PPI HTRF, 50 nM Avi-KRAS G12R GppNHp, compound titration 30-0.0045 μM; read-out: Raf1 RBD-KRAS G12R-GppNHp disruption.

The target in test [6] is T4, Avi-KRAS G12D (1-169) GppNHp/RAF1 RBD-3×FLAG (52-151) (Homo sapiens, UniProt P01116, G12D).
T4 construct: 50 nM Avi-KRAS G12D (1-169) GppNHp/RAF1 RBD-3×FLAG (52-151)
The experiment in a line: Disrupting RAS-effector binding HTRF assay, Raf1 RBD-KRAS G12D-GppNHp. Conditions: PPI HTRF, 50 nM Avi-KRAS G12D GppNHp, compound titration 30-0.0045 μM; read-out: Raf1 RBD-KRAS G12D-GppNHp disruption.

Some results are limits rather than exact numbers.

T3 sequence (P01116 1-169 isoform P01116-2 G12R limits assumed): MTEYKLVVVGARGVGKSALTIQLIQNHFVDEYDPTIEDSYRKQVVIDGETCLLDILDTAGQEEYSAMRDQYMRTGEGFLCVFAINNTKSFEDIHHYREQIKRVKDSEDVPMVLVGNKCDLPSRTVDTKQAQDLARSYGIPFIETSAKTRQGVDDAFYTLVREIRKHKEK
T4 sequence (P01116 1-169 isoform P01116-2 G12D limits assumed): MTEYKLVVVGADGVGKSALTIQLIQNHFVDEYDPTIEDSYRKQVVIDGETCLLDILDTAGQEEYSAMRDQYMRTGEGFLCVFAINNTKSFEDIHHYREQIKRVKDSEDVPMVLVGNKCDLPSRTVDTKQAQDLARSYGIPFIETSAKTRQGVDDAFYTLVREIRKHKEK
T2 sequence (P01116 1-169 isoform P01116-2 G12V limits assumed): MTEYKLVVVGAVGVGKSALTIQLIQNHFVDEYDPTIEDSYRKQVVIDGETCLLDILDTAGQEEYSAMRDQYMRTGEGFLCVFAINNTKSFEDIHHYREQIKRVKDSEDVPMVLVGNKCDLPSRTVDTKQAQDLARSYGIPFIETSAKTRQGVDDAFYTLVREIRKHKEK
T1 sequence (P01116 1-169 isoform P01116-2 limits assumed): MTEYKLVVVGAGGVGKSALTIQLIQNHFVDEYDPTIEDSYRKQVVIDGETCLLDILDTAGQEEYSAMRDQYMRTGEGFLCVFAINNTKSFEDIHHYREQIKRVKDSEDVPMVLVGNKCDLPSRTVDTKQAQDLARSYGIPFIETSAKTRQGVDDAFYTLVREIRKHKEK

In the case of `CN1C[C@H](COc2nc(N3CC4CCC(C3)N4)c3cc(C(F)(F)F)c(-c4ccc(F)c5sc(N)c(C#N)c45)c(F)c3n2)CC1=O` [Compound 33], the IC50 in test [1] was 1 to 10 µM; in test [2], no more than 0.1 µM; in test [3], greater than 10 µM; in test [4] it was greater than 10 µM; in test [5] it was greater than 10 µM; in test [6], 0.1 to 1 µM.

Consider `N#Cc1c(N)sc2c(F)ccc(-c3c(C(F)(F)F)cc4c(N5CC6CCC(C5)N6)nc(OC[C@@H](O)CO)nc4c3F)c12` [Compound 34], for which the IC50 is 1 to 10 µM in test [1]; 0.1 to 1 µM in test [2]; 1 to 10 µM in test [3]; greater than 10 µM in test [4]; greater than 10 µM in test [5]; 0.1 to 1 µM in test [6].

In the case of `COc1c(Cl)c(-c2ccc(F)c3sc(N)c(C#N)c23)c(F)c2ncnc(N3CC4CCC(C3)N4)c12` [Compound 35], the IC50 in test [1] is greater than 10 µM; in test [2], 0.1 to 1 µM; in test [3], greater than 10 µM; in test [4], greater than 10 µM; in test [5], greater than 10 µM; in test [6] it was greater than 10 µM.

As to `COCCCOc1nc(N2CC3CCC(C2)N3)c2cc(C(F)(F)F)c(-c3ccc(F)c4sc(N)c(C#N)c34)c(F)c2n1` [Compound 36], the IC50 in test [1] was 1 to 10 µM; in test [2], no more than 0.1 µM; in test [3], greater than 10 µM; in test [4], greater than 10 µM; in test [5], greater than 10 µM; in test [6] it was 0.1 to 1 µM.

In the case of `N#Cc1c(N)sc2c(F)ccc(-c3c(C(F)(F)F)cc4c(N5C[C@H]6CC[C@@H](C5)N6)nc(OCC5CCOCC5)nc4c3F)c12` [Compound 37, 4-(4-((1R,5S)-3,8-diazabicyclo[3.2.1]octan-3-yl)-8-fluoro-2-((tetrahydro-2H-pyran-4-yl)methoxy)-6-(trifluoromethyl)quinazolin-7-yl)-2-amino-7-fluorobenzo[b]thiophene-3-carbonitrile], the IC50 in test [1] was 1 to 10 µM; in test [2], no more than 0.1 µM; in test [3], greater than 10 µM; in test [4], greater than 10 µM; in test [5] it was greater than 10 µM; in test [6] it was 0.1 to 1 µM.

In the case of `N#Cc1c(N)sc2c(F)ccc(-c3c(C(F)(F)F)cc4c(N5CC6CCC(C5)N6)nc(OC[C@@H]5COCCO5)nc4c3F)c12` [Compound 38], the IC50 in test [1] was 1 to 10 µM; in test [2], no more than 0.1 µM; in test [3] it was greater than 10 µM; in test [4], greater than 10 µM; in test [5], greater than 10 µM; in test [6], 1 to 10 µM.

With `N#Cc1c(N)sc2c(F)ccc(-c3c(C(F)(F)F)cc4c(N5CC6CCC(C5)N6)nc(OC[C@H]5COCCO5)nc4c3F)c12` [Compound 40], the IC50 in test [1] was 0.1 to 1 µM; in test [2] it was no more than 0.1 µM; in test [3], 1 to 10 µM; in test [4] it was greater than 10 µM; in test [5] it was 1 to 10 µM; in test [6], 0.1 to 1 µM.

Regarding `N#Cc1c(N)sc2c(F)ccc(-c3c(C(F)(F)F)cc4c(N5CC6CCC(C5)N6)nc(OCCCCO)nc4c3F)c12` [Compound 41], the IC50 in test [1] was 1 to 10 µM; in test [2], no more than 0.1 µM; in test [3], greater than 10 µM; in test [4], greater than 10 µM; in test [5], greater than 10 µM; in test [6], 0.1 to 1 µM.

As for `N#Cc1c(N)sc2c(F)ccc(-c3c(C(F)(F)F)cc4c(N5CC6CCC(C5)N6)nc(OCCc5ccon5)nc4c3F)c12` [Compound 42], the IC50 in test [1] is 1 to 10 µM; in test [2], no more than 0.1 µM; in test [3] it was greater than 10 µM; in test [4] it was greater than 10 µM; in test [5], 1 to 10 µM; in test [6], 0.1 to 1 µM.

Turning to `N#Cc1c(N)sc2c(F)ccc(-c3c(C(F)(F)F)cc4c(N5CC6CCC(C5)N6)nc(O)nc4c3F)c12` [Compound 43], the IC50 is greater than 10 µM in test [1]; greater than 1 µM in test [2]; greater than 10 µM in test [3]; greater than 10 µM in test [4]; greater than 10 µM in test [5]; greater than 10 µM in test [6].

For the molecule `N#CCCOc1nc(N2CC3CCC(C2)N3)c2cc(C(F)(F)F)c(-c3ccc(F)c4sc(N)c(C#N)c34)c(F)c2n1` [Compound 44], the IC50 was 1 to 10 µM in test [1]; no more than 0.1 µM in test [2]; greater than 10 µM in test [3]; greater than 10 µM in test [4]; greater than 10 µM in test [5]; 1 to 10 µM in test [6].

For the molecule `N#Cc1c(N)sc2c(F)ccc(-c3c(C(F)(F)F)cc4c(N5CC6CCC(C5)N6)nc(OCC5CCCO5)nc4c3F)c12` (stereo not drawn) [Compound 45], the IC50 in test [1] is 1 to 10 µM; in test [2] it was no more than 0.1 µM; in test [3] it was 1 to 10 µM; in test [4], greater than 10 µM; in test [5], 1 to 10 µM; in test [6] it was 0.1 to 1 µM.

In the case of `N#Cc1c(N)sc2c(F)ccc(-c3c(C(F)(F)F)cc4c(N5CC6CCC(C5)N6)nc(OCCC5CCOCC5)nc4c3F)c12` [Compound 46], the IC50 in test [1] is 1 to 10 µM; in test [2] it was no more than 0.1 µM; in test [3], greater than 10 µM; in test [4], greater than 10 µM; in test [5], greater than 10 µM; in test [6], 0.1 to 1 µM.

For the molecule `N#Cc1c(N)sc2c(F)ccc(-c3c(C(F)(F)F)cc4c(N5CC6CCC(C5)N6)nc(OCC5CCOC5)nc4c3F)c12` (stereo not drawn) [Compound 47], the IC50 in test [1] is 1 to 10 µM; in test [2], no more than 0.1 µM; in test [3], greater than 10 µM; in test [4] it was greater than 10 µM; in test [5], greater than 10 µM; in test [6], 0.1 to 1 µM.

As to `N#Cc1c(N)sc2c(F)ccc(-c3c(C(F)(F)F)cc4c(N5CC6CCC(C5)N6)nc(OCC5CCCOC5)nc4c3F)c12` (stereo not drawn) [Compound 48], the IC50 in test [1] is 1 to 10 µM; in test [2] it was no more than 0.1 µM; in test [3], greater than 10 µM; in test [4] it was greater than 10 µM; in test [5], greater than 10 µM; in test [6] it was 1 to 10 µM.

Take `N#Cc1c(N)sc2c(F)ccc(-c3c(C(F)(F)F)cc4c(N5CC6CCC(C5)N6)nc(OCC5CCCCO5)nc4c3F)c12` (stereo not drawn) [Compound 49]: the IC50 in test [1] was 1 to 10 µM; in test [2], no more than 0.1 µM; in test [3], greater than 10 µM; in test [4], greater than 10 µM; in test [5], greater than 10 µM; in test [6], 1 to 10 µM.

As to `N#Cc1c(N)sc2c(F)ccc(-c3c(C(F)(F)F)cc4c(N5CC6CCC(C5)N6)nc(OCCC5CCOC5)nc4c3F)c12` (stereo not drawn) [Compound 50], the IC50 in test [1] was 1 to 10 µM; in test [2], no more than 0.1 µM; in test [3], greater than 10 µM; in test [4], greater than 10 µM; in test [5], greater than 10 µM; in test [6] it was 0.1 to 1 µM.

Turning to `N#Cc1c(N)sc2c(F)ccc(-c3c(C(F)(F)F)cc4c(N5CC6CCC(C5)N6)nc(OCCC5CCCO5)nc4c3F)c12` (stereo not drawn) [Compound 51], the IC50 in test [1] was 1 to 10 µM; in test [2] it was no more than 0.1 µM; in test [3], greater than 10 µM; in test [4], greater than 10 µM; in test [5], greater than 10 µM; in test [6] it was 0.1 to 1 µM.

As for `N#Cc1c(N)sc2c(F)ccc(-c3c(C(F)(F)F)cc4c(N5CC6CCC(C5)N6)nc(OCC5CC6CCC(C5)O6)nc4c3F)c12` (stereo not drawn) [Compound 52], the IC50 in test [1] was 1 to 10 µM; in test [2] it was no more than 0.1 µM; in test [3], greater than 10 µM; in test [4], greater than 10 µM; in test [5] it was greater than 10 µM; in test [6], 1 to 10 µM.
